How the values were obtained:
[1] = system: pain in a surgical skin incision model; experiment: Analgesic effect in surgical skin incision model, von Frey mechanical allodynia; assay type: in vivo, rat
Experimental: This is a surgical skin incision model (Joshi, et al. Pain 123 (2006) 75-82). Animals (rats) were prepared for testing by subjecting them in a surgical procedure carried out under sterile conditions, where the plantaris muscle was elevated and incised longitudinally with the origin and insertion of the muscle remaining intact. The skin was then closed with two mattress sutures (e.g. 5-0 nylon sutures). After surgery, animals were allowed to recover on a warming plate and housed individually in cages with soft bedding. […] Animals were tested for mechanical allodynia using von Frey hair mechanical stimulation 2, 24, and 48 h after surgery as described for the Chung model.

histamine H4 receptor [2] = target: T1, histamine H4 receptor (Homo sapiens, UniProt Q9H3N8); experiment: In vitro histamine H4 potency in FLIPR (Ca2+ flux, HEK-293 cells coexpressing Gαqi5); assay type: cell-based; parameters: expressed in transfected cells; settings: Kb for antagonists and inverse agonists, EC50 for partial agonists
Method in brief: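 Fluo-4-loaded cells read on FLIPR for intracellular Ca2+ rise after compound addition, with pre-addition fluorescence subtracted. Peak responses per concentration expressed as % of the full-agonist histamine response. Concentration–response fits give Kb for antagonists/inverse agonists and EC50 for partial agonists.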
Target sequence in this assay (Q9H3N8 whole entry): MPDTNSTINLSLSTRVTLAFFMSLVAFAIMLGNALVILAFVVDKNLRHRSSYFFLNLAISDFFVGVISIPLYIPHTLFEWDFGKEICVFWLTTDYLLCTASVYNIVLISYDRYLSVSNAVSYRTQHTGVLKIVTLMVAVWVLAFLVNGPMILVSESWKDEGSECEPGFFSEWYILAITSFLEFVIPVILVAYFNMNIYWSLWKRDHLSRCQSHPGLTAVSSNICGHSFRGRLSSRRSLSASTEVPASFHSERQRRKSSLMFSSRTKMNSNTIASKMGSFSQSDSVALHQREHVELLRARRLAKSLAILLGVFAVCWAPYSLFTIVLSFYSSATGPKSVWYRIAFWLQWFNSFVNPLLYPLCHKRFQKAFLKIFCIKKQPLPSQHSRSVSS

neuropathic pain = experiment: Analgesic effect against neuropathic pain: L5/L6 spinal nerve ligation (Chung model), von Frey mechanical allodynia; assay type: in vivo, rat; settings: 30 minutes before testing
Experimental: Animals were prepared for testing, by use of a surgical procedure that induces neuropathic pain in one paw. Male Sprague Dawley rats were purchased from Charles River (Portage, Mich.). Prior to surgery, animals were housed in groups and maintained in a temperature-regulated environment. Following nerve ligation surgery, animals were housed in groups, and had access to food and water ad libitum.
The L5 and L6 spinal nerves of anesthetized rats were tightly ligated in a manner described previously (see Kim and Chung, Pain (1992) vol. 50 pp. 355-363). An incision was made on the dorsal portion of the hip and the muscle was blunt-dissected to reveal the spinal processes. The L6 transverse process was removed, and the left side L5 and L6 spinal nerves were tightly ligated with 5.0 braided silk suture. The wound was cleaned, the membrane sewn with 4.0 dissolvable Vicryl suture and the skin closed with wound clips. The paw affected by the surgical procedure (the left paw) develops an allodynic response, a hypersensitivity to mechanical and other stimuli; neuropathic pain is assessed as an increased sensitivity in the surgically affected (left) allodynic paw compared to the control paw on the right side, and measured by comparing the response of the (left side) allodynic paw to the response of the unaffected right side control paw.
For the assessment of neuropathic pain, mechanical allodynia in the affected paw of animals that had undergone spinal nerve ligation was evaluated using testing with von Frey filaments. As described previously by S. R. Chaplan, et al (“Quantitative assessment of tactile allodynia in the rat paw” J. Neurosci. Meth. (1994) vol. 53 pp. 55-63), two weeks following surgery rats were acclimated to a testing box constructed of plexiglass with a wire mesh floor which allowed access to the plantar surface of the animal's hindpaws. Using an Up-Down method (Dixon, Annu. Rev. Pharmacol. Toxicol. (1980) vol. 20, pp. 441-462; Chaplan et al. “Quantitative assessment of tactile allodynia in the rat paw” J. Neuroscience Methods (1994) vol. 53 pp. 55-63), von Frey filaments of increasing stiffness were applied to the plantar surface of the hindpaws and the withdrawal response of the animals was observed; for the surgically affected paw with neuropathic pain (the left side paw) the baseline level of allodynia has a withdrawal threshold of ≦4 g of pressure. […] The efficacy of the compound in reducing neuropathic pain at different doses is determined by comparing response in the surgery-affected paw versus the response in the control paw. This is expressed as the MPE (maximum percent effect), or 100 times the withdrawal threshold of the allodynic (left side) divided by the withdrawal threshold of the control (right side).

histamine H4 receptor [3] = target: T1, histamine H4 receptor; experiment: [3H]-histamine competition binding assay on membranes of transfected HEK-293 cells; parameters: expressed in transfected cells; host or cells: HEK-293 cells, transient transfection with pCINeo vector; membranes; settings: displacement of [3H]-histamine; Ki by Cheng-Prusoff equation; read-out: Potency
Experimental: In this assay, membranes were prepared from HEK-293 cells transiently transfected with the pCINeo expression vector harboring the histamine H4 receptor by homogenization of the cells on ice in TE buffer (50 mM Tris-HCl buffer, pH 7.4, containing 5 mM EDTA), 1 mM benzamidine, 2 μg/ml aprotinin, 1 μg/ml leupeptin, and 1 μg/ml pepstatin. The homogenate was centrifuged at 40,000 g for 20 minutes at 4° C. This step was repeated, and the resulting pellet was resuspended in TE buffer. Aliquots were frozen at −70° C. until needed. On the day of assay, membranes were thawed and diluted with TE buffer. Competition radioligand binding assays were performed with increasing concentrations of test compound in the presence of [^3H]-histamine incubated at 25° C. for 1 hour in a total volume of 0.5 ml of 50 mM Tris, 5 mM EDTA, pH 7.4. All binding reactions were terminated by filtration under vacuum onto polyethylenimine (0.3%) presoaked Unifilters (PerkinElmer Life Sciences) or Whatman GF/B filters (Whatman, Clifton, N.J.) followed by three brief washes with 4 ml of ice-cold TE buffer. Bound radiolabel was determined by liquid scintillation counting. For all of the radioligand competition binding assays, IC50 values and Hill slopes were determined by Hill transformation of the data and Ki values were determined by the Cheng-Prusoff equation.
Target sequence in this assay (Q9H3N8 whole entry, species assumed): as the sequence (Q9H3N8 whole entry) above

inflammatory pain = experiment: Analgesic effect against inflammatory pain: carrageenan-induced thermal hyperalgesia, hotbox assay; assay type: in vivo; settings: 100 micromole/kg i.p., 90 min after carrageenan, tested 30 min after dosing
Experimental: To assess the effectiveness of representative compounds of the invention against acute model inflammatory pain, animals were tested in an acute model of carrageenan-induced thermal hyperalgesia (see for example, Honore, et al. Behavioural Brain Research 167 (2006) 355-364; Porreca, et al. Journal of Pharmacology and Experimental Therapeutics (2006) vol. 318 pp. 195-205). Carrageenan was injected into the test paw of the animal, and after 90 minutes, the test drug was administered by intraperitoneal dosing; the effect on thermal hyperalgesia was assessed in a hotbox assay which done 30 minutes after the intraperitoneal dosing of the test drug, and the MPE (maximal percent effect) reported by comparison to the control paw (not injected with carrageenan), according to 100 times the withdrawal latency of the carrageenan injected paw (in seconds) divided by the withdrawal latency of the control (not injected with carrageenan) paw.

`CNC1CN(c2nc(N)nc3c2CCCc2ccccc2-3)C1` [Example 3, 4-(3-Methylamino-azetidin-1-yl)-6,7-dihydro-5H-benzo[6,7]cyclohepta[1,2-d]pyrimidin-2-ylamine] gave an MPE ([1]; 30 micromole/kg i.p.) of 21%, an MPE ([1]; 100 micromole/kg i.p.) of 69% and a Potency (histamine H4 receptor [2]) of 9.3 nM. For the same compound, the MPE (neuropathic pain; 100 micromole/kg i.p.) was 36%, the MPE (neuropathic pain; 300 micromole/kg i.p.) was 78% and the Ki (histamine H4 receptor [3]) was 4 nM. The MPE (inflammatory pain) was 41%.

Source: patent publication US8735411B2, “Macrocyclic benzofused pyrimidine derivatives” (AbbVie Inc., priority 2006, dated 2014)
